Results: patent US20220348592A1, “FUSED HETEROCYCLIC DERIVATIVES” (Janssen Sciences Ireland Unlimited Company, priority 2019, published 2022)

Assays:
[1] = Cytotoxicity in HepG2.117 cells, ATPlite Luminescence Assay; assay type: cell-based, human; settings: human, incubated for 3 days, mean value, read-out: TOX-HepG2.117 CC50 (μM, mean value)
Experimental: Cytotoxicity of the compounds was tested using HepG2 or HepG2.117 cells, incubated for 3 days in the presence of compounds. The viability of the cells was assessed using the PERKIN ELMER ATPlite Luminescence Assay System.”

HBV = assay: Anti-HBV activity: intracellular HBV DNA by real-time PCR in HepG2.117 cell line; assay type: cell-based, Hepatitis B virus; settings: Hepatitis B virus, 72 h; HepG2.117 cells, 3 days of treatment, intracellular HBV DNA by real-time PCR, mean value; read-out: HBV-AVE-HepG2.117 EC50 (μM, mean value)
Outline: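 HepG2.117 cells, a Tet-off inducible HBV-producing line, induced to replicate HBV and then treated with serially diluted compound. After 3 days, intracellular HBV DNA quantified by real-time PCR with HBV-specific primers and probe.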

Row | Compound | CC50 at 3 days [1] [µM] | EC50 (HBV) [µM]
1 | C[C@@H]1Cc2nn3c(c2CN1C(=O)c1ccc(Cl)c(Cl)c1)C(=O)N(Cc1ncccc1C(F)(F)F)CC3 [Example C159] | 36 | 0.979
2 | Cc1ncc(CN2CCn3nc4c(c3C2=O)CN(C(=O)c2ccc(Cl)c(Cl)c2)[C@H](C)C4)s1 [Example C160] | > 50 | 0.029
3 | C[C@@H]1Cc2nn3c(c2CN1C(=O)c1ccc(Cl)c(Cl)c1)C(=O)N(Cc1cc(Cl)cc(C#N)c1)CC3 [Example C161] | > 50 | 0.051
4 | Cc1nc(CN2CCn3nc4c(c3C2=O)CN(C(=O)c2ccc(Cl)c(Cl)c2)[C@H](C)C4)cs1 [Example C162] | > 50 | 0.082
5 | COc1ccc(CN2CCn3nc4c(c3C2=O)CN(C(=O)c2ccc(Cl)c(Cl)c2)[C@H](C)C4)cc1C#N [Example C163] | > 50 | 0.098
6 | CC(C)Oc1ccc(CN2CCn3nc4c(c3C2=O)CN(C(=O)c2ccc(Cl)c(Cl)c2)[C@H](C)C4)cc1 [Example C164] | 4.29 | 0.039
7 | C[C@@H]1Cc2nn3c(c2CN1C(=O)c1ccc(Cl)c(Cl)c1)C(=O)N(Cc1nnn(C)c1C(F)(F)F)CC3 [Example C165] | > 50 | 0.676
8 | COc1cccc(F)c1CN1CCn2nc3c(c2C1=O)CN(C(=O)c1ccc(Cl)c(Cl)c1)[C@H](C)C3 [Example C166] | 29.1 | 0.034
9 | C[C@@H]1Cc2nn3c(c2CN1C(=O)c1ccc(Cl)c(Cl)c1)C(=O)N(Cc1ccncc1C(F)F)CC3 [Example C167] | > 50 | 0.277
10 | COc1ccc(CN2CCn3nc4c(c3C2=O)CN(C(=O)c2ccc(Cl)c(Cl)c2)[C@H](C)C4)c(F)c1 [Example C168] | 6.11 | 0.046
11 | C[C@@H]1Cc2nn3c(c2CN1C(=O)c1ccc(Cl)c(Cl)c1)C(=O)N(Cc1ncoc1C(F)(F)F)CC3 [Example C169] | > 50 | 0.831
12 | C[C@@H]1Cc2nn3c(c2CN1C(=O)c1ccc(Cl)c(Cl)c1)C(=O)N(Cc1ccc(C#N)cc1C(F)(F)F)CC3 [Example C170] | > 50 | 0.432
13 | C[C@@H]1Cc2nn3c(c2CN1C(=O)c1ccc(Cl)c(Cl)c1)C(=O)N(Cc1ccc(C(F)(F)F)nc1)CC3 [Example C171] | 15.3 | 0.082
14 | C[C@@H]1Cc2nn3c(c2CN1C(=O)c1ccc(Cl)c(Cl)c1)C(=O)N(Cc1coc(C(F)(F)F)n1)CC3 [Example C172] | > 50 | 0.19
15 | Cc1cn(C)c(CN2CCn3nc4c(c3C2=O)CN(C(=O)c2ccc(Cl)c(Cl)c2)[C@H](C)C4)n1 [Example C173] | > 50 | 0.41
16 | C[C@@H]1Cc2nn3c(c2CN1C(=O)c1ccc(Cl)c(Cl)c1)C(=O)N(Cc1ccccc1OC(F)(F)F)CC3 [Example C174] | 15.3 | 0.18
17 | C[C@@H]1Cc2nn3c(c2CN1C(=O)c1ccc(Cl)c(Cl)c1)C(=O)N(Cc1ccc(C#N)cc1F)CC3 [Example C175] | 35.5 | 0.038
18 | C[C@@H]1Cc2nn3c(c2CN1C(=O)c1ccc(Cl)c(Cl)c1)C(=O)N(Cc1cn2ccc(C(F)(F)F)cc2n1)CC3 [Example C176] | 15 | 0.274
19 | Cc1cc(F)ncc1CN1CCn2nc3c(c2C1=O)CN(C(=O)c1ccc(Cl)c(Cl)c1)[C@H](C)C3 [Example C177] | > 50 | 0.136
20 | C[C@@H]1Cc2nn3c(c2CN1C(=O)c1ccc(Cl)c(Cl)c1)C(=O)N(Cc1cc(C#N)c(F)cc1F)CC3 [Example C178] | > 50 | 0.207
21 | CC(C)c1nnc(CN2CCn3nc4c(c3C2=O)CN(C(=O)c2ccc(Cl)c(Cl)c2)[C@H](C)C4)o1 [Example C179] | > 50 | 0.219
22 | C[C@@H]1Cc2nn3c(c2CN1C(=O)c1ccc(Cl)c(Cl)c1)C(=O)N(Cc1cc(C#N)ccc1F)CC3 [Example C180] | > 50 | 0.123
23 | C[C@@H]1Cc2nn3c(c2CN1C(=O)c1ccc(Cl)c(Cl)c1)C(=O)N(Cc1cc(F)ccc1C(F)(F)F)CC3 [Example C181] | > 50 | 0.152
24 | C[C@@H]1Cc2nn3c(c2CN1C(=O)c1ccc(Cl)c(Cl)c1)C(=O)N(Cc1cc(C(F)F)on1)CC3 [Example C182] | > 50 | 0.075

Row | Compound | CC50 at 3 days [1] [µM] | EC50 (HBV) [µM]
25 | CC(C)c1noc(C(C)N2CCn3nc4c(c3C2=O)CN(C(=O)c2ccc(Cl)c(Cl)c2)[C@H](C)C4)n1 (stereo partly shown) [Example C183] | > 50 | 0.108
26 | CC(c1nnnn1C1CC1)N1CCn2nc3c(c2C1=O)CN(C(=O)c1ccc(Cl)c(Cl)c1)[C@H](C)C3 (stereo partly shown) [Example C184] | > 50 | > 2.5
27 | CC(c1cccnc1)N1CCn2nc3c(c2C1=O)CN(C(=O)c1ccc(Cl)c(Cl)c1)[C@H](C)C3 (stereo partly shown) [Example C185] | > 50 | 0.114
28 | CC(c1ccc(F)c(F)c1)N1CCn2nc3c(c2C1=O)CN(C(=O)c1ccc(Cl)c(Cl)c1)[C@H](C)C3 (stereo partly shown) [Example C186] | 21.6 | 0.049
29 | CC(C)Cc1nnc(C(C)N2CCn3nc4c(c3C2=O)CN(C(=O)c2ccc(Cl)c(Cl)c2)[C@H](C)C4)o1 (stereo partly shown) [Example C187] | > 50 | 0.155
30 | CC(c1cccc(F)c1)N1CCn2nc3c(c2C1=O)CN(C(=O)c1ccc(Cl)c(Cl)c1)[C@H](C)C3 (stereo partly shown) [Example C188] | 49.6 | 0.04
31 | CC(c1cc(F)ccc1F)N1CCn2nc3c(c2C1=O)CN(C(=O)c1ccc(Cl)c(Cl)c1)[C@H](C)C3 (stereo partly shown) [Example C189] | 41.8 | 0.043
32 | CC(c1nc(C2CC2)no1)N1CCn2nc3c(c2C1=O)CN(C(=O)c1ccc(Cl)c(Cl)c1)[C@H](C)C3 (stereo partly shown) [Example C190] | 33.1 | 0.115
33 | CC(c1cccc2cccnc12)N1CCn2nc3c(c2C1=O)CN(C(=O)c1ccc(Cl)c(Cl)c1)[C@H](C)C3 (stereo partly shown) [Example C191] | 33 | 0.097
34 | CC(c1ccc(F)cc1F)N1CCn2nc3c(c2C1=O)CN(C(=O)c1ccc(Cl)c(Cl)c1)[C@H](C)C3 (stereo partly shown) [Example C192] | 39.7 | 0.076
35 | Cc1nccnc1C(C)N1CCn2nc3c(c2C1=O)CN(C(=O)c1ccc(Cl)c(Cl)c1)[C@H](C)C3 (stereo partly shown) [Example C193] | > 50 | 0.197
36 | CC(c1cccc(OC(F)(F)F)c1)N1CCn2nc3c(c2C1=O)CN(C(=O)c1ccc(Cl)c(Cl)c1)[C@H](C)C3 (stereo partly shown) [Example C194] | 26.4 | 0.075
37 | C[C@@H]1Cc2nn3c(c2CN1C(=O)c1ccc(Cl)c(Cl)c1)C(=O)N(Cc1ccc(C#N)cn1)CC3 [Example C195] | > 50 | 0.566
38 | C[C@@H]1Cc2nn3c(c2CN1C(=O)c1ccc(Cl)c(Cl)c1)C(=O)N(Cc1cc(F)cc(F)c1)CC3 [Example C196] | 38 | 0.048
39 | C[C@@H]1Cc2nn3c(c2CN1C(=O)c1ccc(Cl)c(Cl)c1)C(=O)N(Cc1c(F)cncc1F)CC3 [Example C197] | > 50 | 0.24
40 | COc1ncc(CN2CCn3nc4c(c3C2=O)CN(C(=O)c2ccc(Cl)c(Cl)c2)[C@H](C)C4)cn1 [Example C198] | > 50 | 0.053
41 | C[C@@H]1Cc2nn3c(c2CN1C(=O)c1ccc(Cl)c(Cl)c1)C(=O)N(Cc1nc(Cl)ccc1F)CC3 [Example C199] | > 50 | 0.33
42 | C[C@@H]1Cc2nn3c(c2CN1C(=O)c1ccc(Cl)c(Cl)c1)C(=O)N(Cc1nnn(C)n1)CC3 [Example C200] | > 50 | 0.25
43 | C[C@@H]1Cc2nn3c(c2CN1C(=O)c1ccc(Cl)c(Cl)c1)C(=O)N(Cc1nnc(C2CC2)o1)CC3 [Example C201] | > 50 | 0.229
44 | C[C@@H]1Cc2nn3c(c2CN1C(=O)c1ccc(Cl)c(Cl)c1)C(=O)N(Cc1cn(C)cn1)CC3 [Example C202] | > 50 | 0.071
45 | C[C@@H]1Cc2nn3c(c2CN1C(=O)c1ccc(Cl)c(Cl)c1)C(=O)N(Cc1ccc(C#N)cc1OC(F)F)CC3 [Example C203] | > 50 | 0.09
46 | Cc1cc(CN2CCn3nc4c(c3C2=O)CN(C(=O)c2ccc(Cl)c(Cl)c2)[C@H](C)C4)ccc1C#N [Example C204] | 19.2 | 0.028
47 | Cc1cc(C#N)ccc1CN1CCn2nc3c(c2C1=O)CN(C(=O)c1ccc(Cl)c(Cl)c1)[C@H](C)C3 [Example C207] | 25.6 | 0.053
